Reference: ChEMBL document CHEMBL1201862, “PubChem BioAssay data set” (2004)
The source made the active and inactive calls.

Tests used:
H9c2 = assay: cells; type: functional, cell-based; settings: Rattus norvegicus, H9c2, Myocardium;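 further: confirmatory concentration-response retest of ultra-high-throughput screening hits for modulation of myocardial damage; cell death induced by hydrogen peroxide oxidative stress; compound pretreatment for 60 min then peroxide exposure for 2 h; potency is for protecting the cells against peroxide damage rather than for killing them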
[1] = Luminescence Cell-Based Dose Response HTS to Identify Inhibitors of 5'UTR Stem-Loop Driven Prion Protein mRNA Translation in H4 Neuroglioblastoma Cells. [Related pubchem assays: 1827 (Project Summary), 1813 (Primary HTS)]; type: functional
[2] = inhibitors of firefly luciferase expression or activity, dose response, H4 neuroglioma cells, luminescence (AID 1990); type: functional, cell-based
[3] = inhibitors of SNCA 5'UTR-driven reporter translation, confirmation, H4 neuroglioma cells, luminescence (AID 1988); type: functional, cell-based
[4] = C. albicans growth with fluconazole, confirmation, fluorescence, retest (AID 2467); type: functional, cell-based
[5] = NIH-3T3 fibroblast cytotoxicity, dose response, cytotoxicity control, cell-based, fluorescence, Alamar Blue, secondary assay (AID 2327); type: functional;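 further: NIH-3T3 mouse fibroblasts cultured with fluconazole at 8 µg/mL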
cells [6] = type: functional
[7] = HEp-2 cell cytotoxicity, dose response, cytotoxicity control for RSV inhibitor project, HTS (AID 2410); type: functional; settings: human respiratory syncytial virus
cells [8] = type: functional, cell-based
cells [9] = type: functional, cell-based; remark: listed apart in the source
Paired box protein Pax-8 = Paired box protein Pax-8 (Homo sapiens, UniProt Q06710); assay: inhibitors of PAX8-driven TPO luciferase reporter, dose response, RMG-I cells, cherry-pick (AID 687027); type: functional, cell-based;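 further: luciferase reporter driven by Pax8 target thyroperoxidase promoter measured by SteadyGlo luminescence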
Sequence of Paired box protein Pax-8 (Q06710 whole entry): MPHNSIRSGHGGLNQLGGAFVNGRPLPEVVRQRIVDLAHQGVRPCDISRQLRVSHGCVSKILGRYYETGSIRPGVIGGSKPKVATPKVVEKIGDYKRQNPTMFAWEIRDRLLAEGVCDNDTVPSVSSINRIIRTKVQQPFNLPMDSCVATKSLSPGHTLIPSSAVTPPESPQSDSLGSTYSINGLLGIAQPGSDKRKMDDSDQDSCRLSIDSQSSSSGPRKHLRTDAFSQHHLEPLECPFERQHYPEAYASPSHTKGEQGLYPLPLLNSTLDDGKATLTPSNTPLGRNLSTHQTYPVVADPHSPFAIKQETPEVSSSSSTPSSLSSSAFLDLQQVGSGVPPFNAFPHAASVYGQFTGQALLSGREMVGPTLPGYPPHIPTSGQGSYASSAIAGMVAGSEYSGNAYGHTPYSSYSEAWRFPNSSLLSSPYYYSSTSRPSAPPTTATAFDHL

P388 = assay: cells; type: functional; settings: Mus musculus
SN12K1 = assay: cells; type: functional; settings: Homo sapiens
P388/ADR = assay: cells; type: functional; settings: Mus musculus
Vero = assay: cells; type: functional; settings: Chlorocebus sabaeus
Streptokinase A = biological target: T1, Streptokinase A (Streptococcus pyogenes serotype M1, UniProt P10520); assay: S. pyogenes streptokinase expression inhibitors, potency, dose response, plasminogen activation absorbance, OD405 (AID 1914); type: functional, Streptococcus pyogenes M1 GAS;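 further: secreted streptokinase activity via plasminogen activation per viability signal from cell pellet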
T1 sequence (P10520 whole entry): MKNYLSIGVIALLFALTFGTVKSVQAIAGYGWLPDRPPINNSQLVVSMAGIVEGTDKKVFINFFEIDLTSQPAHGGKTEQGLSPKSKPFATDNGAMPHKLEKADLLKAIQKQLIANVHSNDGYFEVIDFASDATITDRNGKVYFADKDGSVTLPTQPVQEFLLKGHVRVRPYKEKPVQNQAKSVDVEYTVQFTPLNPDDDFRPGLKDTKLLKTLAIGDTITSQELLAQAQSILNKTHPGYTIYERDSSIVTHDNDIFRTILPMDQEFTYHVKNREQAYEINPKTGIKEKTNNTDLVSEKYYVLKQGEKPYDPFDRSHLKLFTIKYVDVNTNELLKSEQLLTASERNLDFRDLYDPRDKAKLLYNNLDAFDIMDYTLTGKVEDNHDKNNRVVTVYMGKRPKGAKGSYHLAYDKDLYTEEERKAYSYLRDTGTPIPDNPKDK

[10] = test system: Streptococcus sp. 'group A'; assay: growth inhibition of control SK(-) GAS strain, dose response, counter-screen for streptokinase expression inhibitor project, luminescence, kanamycin, BacTiterGlo, confirmation (AID 1900); type: functional, organism-based
INS1 = assay: beta cell apoptosis inhibitors, cytokine rescue, dose response, luminescence, retest (AID 449756); type: functional, cell-based; settings: Rattus norvegicus;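 further: cell death triggered by IL-1 beta plus TNF-alpha plus IFN-gamma mixture; protective hits raise ATP signal compared with cytokine alone wells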
Streptococcus = assay: Group A Streptococcus viability loss, dose response, counter-screen for streptokinase expression inhibitor project, luminescence, BacTiterGlo (AID 1915); type: functional, organism-based;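 further: potency for reduction of bacterial viability or growth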

Cn1c(=O)[nH]c(=O)c2c1nc(Br)n2CC(O)COc1ccc(Cl)cc1 (configuration not stated)
IC50 (H9c2): > 79 µM (inactive)

COc1ccc(C(=O)Nc2ccc[n+](-c3nc4ccccc4nc3[N-]S(=O)(=O)c3ccccc3)c2)cc1
EC50 [1]: > 120 µM (not active)
EC50 [2]: > 120 µM (not active)
EC50 [3]: > 120 µM (not active)

COc1ccc(C(=O)Nc2ccccc2N2CCOCC2)cc1[N+](=O)[O-]
EC50 [1]: > 120 µM (not active)
EC50 [2]: > 120 µM (not active)
EC50 [3]: > 120 µM (not active)

CCc1ccccc1N=C(S)N1CCCCCC1
EC50 [4]: > 38 µM (not active)
EC50 [5]: 42.1 µM (active)

O=C(c1cc2ccccc2o1)N1CCN(Cc2ccccc2)CC1
IC50 (cells [6]): 18.8 µM (active)

Oc1nnc(Cc2ccccn2)c2ccccc12
IC50 (H9c2): 39.4 µM (inactive)

O=c1cc(CSc2ccc([N+](=O)[O-])cc2)nc2sccn12
IC50 (H9c2): > 79 µM (inactive)

CCOC(=O)COc1ccc2c(=O)c(-c3ccccc3OC)coc2c1
IC50 (cells [6]): 1.45 µM (active)

O=C(O)c1ccc(NS(=O)(=O)/C=C/c2ccccc2)cc1O
IC50 (cells [6]): 16.6 µM (active)

CCCCn1c(=O)[nH]c(=O)c2c1nc(-c1ccc(OC(F)F)c(OC)c1)n2C
EC50 [1]: > 120 µM (not active)
EC50 [2]: 24.6 µM (active)
EC50 [3]: > 120 µM (not active)

CCN1C(=O)/C(=C/c2nc(O)c3ccccc3n2)c2ccccc21
IC50 (H9c2): > 79 µM (inactive)

CCCCn1c(N2CCCC2)nc2c1c(=O)[nH]c(=O)n2C
EC50 [1]: > 120 µM (not active)
EC50 [2]: > 120 µM (not active)
EC50 [3]: > 120 µM (not active)

CCOC(=O)N1CCC(NC(=O)c2cc3c(-c4ccccc4F)nn(C)c3s2)CC1
IC50 (H9c2): 10.6 µM (active)

Cc1ccc(S(=O)(=O)N2CCOC23CCN(C(=O)c2cc(Cl)ccc2Cl)CC3)cc1
CC50 [7]: 16.3 µM (active)
EC50 (cells [8]): > 350 µM (not active)
EC50 (cells [9]): > 350 µM (not active)

CCOc1ncccc1C(=O)Nc1cccc(-c2nc3cccnc3s2)c1
IC50 (H9c2): > 79 µM (inactive)

Cc1cccnc1NC(=O)c1c(O)c2ccccc2n(C)c1=O
IC50 (cells [6]): 25 µM (active)

O=C1c2ccccc2NC(c2cnc3ccccc3n2)N1O (configuration not stated)
EC50 [4]: > 38 µM (not active)
EC50 [5]: > 160 µM (inactive)

CC(=O)c1c(C)oc2ccc(N(C(C)=O)S(=O)(=O)c3ccc(Cl)c([N+](=O)[O-])c3)cc12
EC50 [1]: 8.95 µM (active)
EC50 [2]: 7.87 µM (active)
EC50 [3]: 7.59 µM (active)

CCNc1nc(SCc2ccccc2)nc(N2CCOCC2)n1
EC50 [1]: > 120 µM (not active)
EC50 [2]: 13.1 µM (active)
EC50 [3]: 16.8 µM (active)

O=S(=O)(Nc1cccc(-c2cn3cccnc3n2)c1)c1ccc(Cl)cc1
AC50 (Paired box protein Pax-8): 43.5 µM (active)

COc1ccc(NCc2nnc(O)c3ccccc23)cc1
IC50 (H9c2): > 79 µM (inactive)

O=C(CN1C(=O)COc2ccccc21)NCCCN1CCc2ccccc2C1
EC50 [4]: > 38 µM (not active)
EC50 [5]: > 150 µM (inactive)

COc1cc2[nH]c(Cl)c([N+](=O)[O-])c2cc1OC
IC50 (cells [6]): 23.1 µM (active)

O=C(Nc1ccccn1)c1cc(-c2cccnc2)nc2ccc(Br)cc12
EC50 [1]: 13.5 µM (active)
EC50 [2]: 10.9 µM (active)
EC50 [3]: 8.63 µM (active)

COc1ccc(CC(=O)N2CCN(C(=O)Cc3ccc(OC)cc3)CC2)cc1
EC50 (cells [8]): > 350 µM (not active)
EC50 (cells [9]): > 350 µM (not active)

CN(CCc1cn[nH]c1)Cc1nc(C(c2ccccc2)c2ccccc2)no1
AC50 (Paired box protein Pax-8): 65 µM (active)

CSc1nc2ccc(S(=O)(=O)Nc3c(C)n(C)n(-c4ccccc4)c3=O)cc2s1
IC50 (H9c2): > 79 µM (inactive)

[N-]=[N+]=CC(=O)CCC(N)C(=O)O (configuration not stated)
GI50 (P388): 0.0991 µM (active)
GI50 (SN12K1): 0.871 µM (active)
GI50 (P388/ADR): 0.112 µM (active)

CC1=CC(O)C(O)C2(C)C1CC1OC(=O)C(O)C3C(C)C(O)C4(O)OCC13C42 (configuration not stated)
GI50 (P388): > 29 µM (inactive)
GI50 (SN12K1): 3.63 µM (inactive)
GI50 (P388/ADR): > 625 µM (inactive)

O=c1cc(-c2cccnc2)oc2c1ccc1ccccc12
IC50 (H9c2): > 79 µM (inactive)

CN(C(=O)CCN1C(=O)/C(=C/c2ccc(F)cc2)SC1=S)C1CCS(=O)(=O)C1 (configuration not stated)
CC50 (Vero): > 25 µM (active)

CCNC(=O)C(C)C1CCC2(C)C=CC(=O)C(C)=C2C1O (configuration not stated)
GI50 (P388): > 100 µM (inactive)
GI50 (SN12K1): > 100 µM (inactive)
GI50 (P388/ADR): > 100 µM (inactive)

O=C(N/N=C/c1cccs1)c1cncc(Br)c1
IC50 (cells [6]): 10.7 µM (active)

O=NN(CCCl)C(=O)Nc1ccc(Cl)c(Cl)c1
GI50 (P388): 49.1 µM (inactive)
GI50 (SN12K1): 84.9 µM (inactive)
GI50 (P388/ADR): 65 µM (inactive)

O=C(NCCCCCCNC(=O)n1cc(F)c(=O)[nH]c1=O)NCCCOCCOCCOCCOCCOCCOCCOCCOCCOCCOCCOCCOCCOCCOCCOCCOCCOCCOCCOCCOCCOCCCNC(=O)C(O)C(O)C(O)C(O)CO (configuration not stated)
GI50 (P388): 0.879 µM (active)
GI50 (SN12K1): 6.15 µM (inactive)
GI50 (P388/ADR): 0.492 µM (active)

C/C(=N\NC(=[Se])N(C)C)c1ccccn1
GI50 (P388): < 0.01 µM (active)
GI50 (SN12K1): < 0.01 µM (active)
GI50 (P388/ADR): < 0.01 µM (active)

O=C1OC2CC=CC1C2 (configuration not stated)
GI50 (P388): > 100 µM (inactive)
GI50 (SN12K1): > 100 µM (inactive)
GI50 (P388/ADR): > 100 µM (inactive)

CC(C)[C@](O)(C(=O)OCC1CC[N+]2([O-])CC[C@@H](O)C12)[C@H](C)O (some centres not stated)
GI50 (P388): > 364 µM (inactive)
GI50 (SN12K1): > 375 µM (inactive)
GI50 (P388/ADR): > 375 µM (inactive)

COc1ccc(/C=N/NC(=O)c2cccnc2)cc1CN1CCc2ccccc2C1
IC50 (H9c2): 10.6 µM (active)

CC[C@]12C=CCN3CC[C@@]4(c5ccc(OC)cc5N(C)[C@H]4[C@@](O)(C(=O)OC)[C@@H]1OC(C)=O)[C@@H]32
GI50 (P388): 14.5 µM (inactive)
GI50 (SN12K1): 193 µM (inactive)
GI50 (P388/ADR): 95.3 µM (inactive)

CCOC(=O)CN1CCS/C1=N/C#N
GI50 (P388): > 100 µM (inactive)
GI50 (SN12K1): > 100 µM (inactive)
GI50 (P388/ADR): > 100 µM (inactive)

COc1cc(C(=O)N/N=C/C2CC=CCC2)cc(OC)c1OC (configuration not stated)
EC50 [1]: > 120 µM (not active)
EC50 [2]: > 120 µM (not active)
EC50 [3]: > 120 µM (not active)

COc1cccc2c1[C@H]1CO[C@H]3C4C[C@H](C(=O)O)C([C@@H](C2)N13)N4C (some centres not stated)
GI50 (P388): 1.08 µM (active)
GI50 (SN12K1): 0.483 µM (active)
GI50 (P388/ADR): 0.0906 µM (active)

Cc1cc(C)nc(N/N=C/c2cc(Br)ccc2O)n1
EC50 (Streptokinase A): > 150 µM (not active)
EC50 [10]: 8.51 µM (active)
EC50 (cells [8]): 7.66 µM (active)
AC50 (INS1): 3.35 µM (active)
EC50 (cells [9]): > 350 µM (not active)
EC50 (Streptococcus): 146 µM (active)

CO[C@H]1[C@@H](O)[C@@H](O)O[C@@H](O[C@H]2CC[C@@]3(C)[C@H](CC[C@@H]4[C@@H]3[C@H](O)C[C@]3(C)[C@@H](C5=CC(=O)OC5)CC[C@]43O)C2)[C@@H]1O
AC50 (Paired box protein Pax-8): 0.809 µM (active)

Nc1ncnc2c1nnn2C1OC(CO)C(O)C1O (configuration not stated)
GI50 (P388): 3.42 µM (inactive)
GI50 (SN12K1): 1.71 µM (inactive)
GI50 (P388/ADR): 8.43 µM (inactive)
